The values that follow come from patent EP4737451A1 (Dong Wha Pharm. Co., Ltd., priority 2023, dated 2025).

The target of one assay is T1, IRAK4 enzyme (Homo sapiens, UniProt Q9NWZ3).
T1 construct: purchased Promega V2621
T1 sequence (Q9NWZ3 1-460): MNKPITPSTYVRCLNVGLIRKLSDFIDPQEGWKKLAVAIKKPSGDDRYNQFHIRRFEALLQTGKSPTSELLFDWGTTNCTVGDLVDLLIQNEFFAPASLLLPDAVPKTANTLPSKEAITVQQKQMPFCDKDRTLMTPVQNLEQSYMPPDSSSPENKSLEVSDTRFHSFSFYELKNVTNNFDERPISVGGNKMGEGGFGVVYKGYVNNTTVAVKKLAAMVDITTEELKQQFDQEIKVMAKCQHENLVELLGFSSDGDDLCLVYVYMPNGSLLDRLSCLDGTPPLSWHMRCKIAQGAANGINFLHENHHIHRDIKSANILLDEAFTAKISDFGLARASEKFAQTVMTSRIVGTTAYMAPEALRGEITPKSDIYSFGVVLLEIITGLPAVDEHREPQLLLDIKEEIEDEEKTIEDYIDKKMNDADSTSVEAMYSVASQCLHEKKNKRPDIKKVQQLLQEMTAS
Description: IRAK4 enzyme activity inhibition (ADP-Glo, Promega kit). The conditions noted are these: for inhibition at 0.1 µM: test compound 0.1 uM; for inhibition at 1 µM: test compound 1 uM. It is filed as biochemical. The method, then:
An experiment on IRAK4 enzyme activity inhibition of the compound of the present invention was conducted.
An IRAK4 enzyme kit (purchased from Promega, product number: V2621) was used to dilute a mixed solution between 0.1 µg/µL of myelin basic protein (MBP), which is an enzyme-reactive substrate, and 1.25 mM of ATP with a reaction buffer (40 mM Tris-HCl, pH 7.5; 20 mM MgCl2; 0.1 mg/mL BSA; 50 µM DTT) according to the instructions, so as to dispense 2 µL in a 384-well white plate, and then to add 1 µL of a test compound, which was gradient diluted starting from 1 mM, to a 384-well plate. After that, an IRAK4 enzyme was diluted with a reaction buffer to a final concentration of 5 ng/µL, then 2 µL/well was dispensed into a 384-well white plate and reacted at 37°C for 60 minutes. After completion of a reaction, an ADP-GloTM enzyme test kit (purchased from Promega, product number: V9102) was used to add 5 µL of ADP-Glo reaction reagent and cause a reaction at 37°C for 40 minutes, and then 10 µL of enzyme chromogenic reagent was added again to measure a luminescence signal using equipment for measuring absorbance (THECAN, Microplate Reader). An activity inhibition rate was calculated from a measured value, and a 50% inhibition concentration (IC50 value) was analyzed through a non-linear regression analysis based on the % inhibition for each concentration of the test compound, and is shown in Table 2.

The next assay concerns the target T2, IRAK1 enzyme (Homo sapiens, UniProt P51617).
T2 construct: purchased Promega VA7477
Description: IRAK1 enzyme activity inhibition (ADP-Glo, Promega kit). Type of assay: biochemical. The conditions noted are these: for inhibition at 0.1 µM: test compound 0.1 uM; for inhibition at 1 µM: test compound 1 uM. The method, then: An experiment on IRAK1 enzyme activity inhibition of the compound of the present invention was conducted.
An IRAK1 enzyme kit (purchased from Promega, product number: VA7477) was used to dilute a mixed solution between 0.1 µg/µL of protein kinase B (AKT), which is an enzyme-reactive substrate, and 1.25 mM of ATP with a reaction buffer (40 mM Tris-HCl, pH 7.5; 20 mM MgCl2; 0.1 mg/mL BSA; 50 µM DTT) according to the instructions, so as to dispense 2 µL in a 384-well white plate, and then to add 1 µL of a test compound, which was gradient diluted starting from 1 mM, to a 384-well white plate. After that, an IRAK1 enzyme was diluted with a reaction buffer to a final concentration of 5 ng/µL, then 2 µL/well was dispensed into a 384-well white plate and reacted at 37°C for 60 minutes. After completion of a reaction, an ADP-GloTM enzyme test kit (purchased from Promega, product number: V9102) was used to add 5 µL of ADP-Glo reaction reagent and cause a reaction at 37°C for 40 minutes, and then 10 µL of enzyme chromogenic reagent was added again to measure a luminescence signal using equipment for measuring absorbance (THECAN, Microplate Reader). An activity inhibition rate was calculated from a measured value, and a 50% inhibition concentration (IC50 value) was analyzed through a non-linear regression analysis based on the % inhibition for each concentration of the test compound, and is shown in Table 3.
(ADP-Glo first removes unused ATP, then detects ADP through luciferase.)

The test system of a further assay is hPBMC TNFα. Description: Cell-based inflammatory cytokine secretion inhibition (LPS-stimulated PBMC, hTNF-α ELISA). The settings on record: human PBMC, LPS 1 µg/mL, hTNF-α by ELISA, mean; read-out: hPBMC TNFα IC50_mean. The method, then: An experiment on inflammatory cytokine secretion inhibition of the compound of the present invention was conducted.
PBMC (LONZA, peripheral blood mononuclear cells) isolated from human whole blood was dispensed into a 96-well plate at a density of 1.0 X 10^5 cells/well, and the cells were stabilized for 20 hours. After that, a test compound diluted at each of four concentrations was added to a Roswell Park Memorial Institute (RPMI) medium, reacted for one hour, treated with lipopolysaccharide (LPS) to reach a final concentration of 1 µg/mL, and further reacted for one hour. hTNF-α, which is an inflammatory cytokine, was measured by an enzyme linked immunosorbent assay using an ELISA kit from Goma Biotech. A cell supernatant, a standard drug, and an antibody were added to an ELISA-plate and reacted for four hours in total, after which the plate was washed, reacted with streptavidin-HRP for 30 minutes, and washed again. After that, a TMB substrate was added and reacted in a dark place, and when a color was sufficiently developed, a stop solution was added to stop the reaction. hTNF-α was measured by measuring absorbance at 450 nm using equipment for absorption measurement (Microplate Reader from BioTeK). An activity inhibition rate was calculated from a measured absorbance value, a % inhibition for each concentration of the test compound was calculated, a 50% inhibition concentration (IC50 value) was analyzed through a non-linear regression analysis, and the results are shown in Table 4.
A general note: An ELISA detects its analyte on a solid surface through an enzyme-linked reagent.

T2 sequence (P51617 whole entry): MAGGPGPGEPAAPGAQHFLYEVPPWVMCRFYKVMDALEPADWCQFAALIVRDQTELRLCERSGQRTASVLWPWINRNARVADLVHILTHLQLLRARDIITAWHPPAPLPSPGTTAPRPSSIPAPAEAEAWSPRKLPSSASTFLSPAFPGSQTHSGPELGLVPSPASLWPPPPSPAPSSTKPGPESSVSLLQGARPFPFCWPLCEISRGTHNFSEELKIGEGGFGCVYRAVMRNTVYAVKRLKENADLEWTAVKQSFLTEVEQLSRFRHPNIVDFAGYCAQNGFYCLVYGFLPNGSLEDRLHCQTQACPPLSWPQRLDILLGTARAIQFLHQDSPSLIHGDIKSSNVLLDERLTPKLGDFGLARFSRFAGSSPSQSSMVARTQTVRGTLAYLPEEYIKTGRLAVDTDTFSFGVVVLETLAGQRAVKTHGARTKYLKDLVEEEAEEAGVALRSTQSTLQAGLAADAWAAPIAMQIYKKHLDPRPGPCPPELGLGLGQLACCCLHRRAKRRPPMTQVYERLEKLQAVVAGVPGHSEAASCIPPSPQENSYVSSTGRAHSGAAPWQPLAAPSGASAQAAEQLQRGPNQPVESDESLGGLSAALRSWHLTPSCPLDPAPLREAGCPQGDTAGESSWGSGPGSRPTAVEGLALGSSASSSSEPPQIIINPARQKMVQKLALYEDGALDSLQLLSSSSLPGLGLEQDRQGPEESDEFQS

`CC(C)(O)CCn1cc2cc(NC(=O)c3ccc(N)c([N+](=O)[O-])c3)c(N3CCOCC3)cc2n1` [Example 23, 4-amino-N-(2-(3-hydroxy-3-methylbutyl)-6-morpholino-2H-indazol-5-yl)-3-nitrobenzamide]: the IC50 against IRAK4 enzyme was determined as 10.5 nM; in the assay on hPBMC TNFα it was 601 nM. Also, the inhibition – broadly, the drop in the measured response relative to a control, in per cent – at 0.1 µM on IRAK4 enzyme was 88%; on IRAK1 enzyme, 26%. At IRAK1 enzyme, this compound showed an inhibition at 1 µM of 45.3%.

Turning to `CC(C)(O)CCn1cc2cc(NC(=O)c3cncc([N+](=O)[O-])c3)c(N3CCOCC3)cc2n1` [Example 2, N-(2-(3-hydroxy-3-methylbutyl)-6-morpholino-2H-indazol-5-yl)-5-nitronicotinamide], the values for the IC50 on IRAK4 enzyme and in the assay with hPBMC TNFα were 56.7 nM and 526 nM, respectively. Moreover, the inhibition at 0.1 µM amounted to 72.7% on IRAK4 enzyme and 32.1% on IRAK1 enzyme. For the same compound, the inhibition at 1 µM on IRAK4 enzyme was found to be 86.5%.

At IRAK4 enzyme, `CC(C)(O)CCn1cc2cc(NC(=O)c3cccc([N+](=O)[O-])c3)c(N3CCC(O)CC3)cc2n1` [Example 32, N-(2-(3-hydroxy-3-methylbutyl)-6-(4-hydroxypiperidin-1-yl)-2H-indazol-5-yl)-3-nitrobenzamide] came in with an IC50 of 2 nM and an inhibition at 0.1 µM of 87.1%. At IRAK1 enzyme, this compound returned an inhibition at 0.1 µM of 17.5% and an inhibition at 1 µM of 52%. In the assay on hPBMC TNFα, the IC50 worked out at 113 nM.

On IRAK4 enzyme, `CC(C)(O)CCn1cc2cc(NC(=O)c3cccc(S(N)(=O)=O)c3)c(N3CCOCC3)cc2n1` [Example 15] yielded an IC50 of 3.7 nM, an inhibition at 0.1 µM of 88.8% and an inhibition at 1 µM of 95.2%. At IRAK1 enzyme, this compound registered an inhibition at 0.1 µM of 28.5% and an inhibition at 1 µM of 66.5%. Besides, in the assay on hPBMC TNFα, the IC50 worked out at 575 nM.

At IRAK4 enzyme, `CC(C)(O)CCn1cc2cc(NC(=O)c3cccc(-c4ccn[nH]4)n3)c(N3CCOCC3)cc2n1` [Example 21, N-(2-(3-hydroxy-3-methylbutyl)-6-morpholino-2H-indazol-5-yl)-6-(1H-pyrazol-5-yl)picolinamide] displayed an IC50 of 1.5 nM, an inhibition at 0.1 µM of 89.3% and an inhibition at 1 µM of 97.9%. On IRAK1 enzyme, this compound showed an IC50 of 70 nM, an inhibition at 0.1 µM of 67.2% and an inhibition at 1 µM of 82.4%. Moreover, the IC50 with hPBMC TNFα was found to be 11.9 nM.

On to `CC(C)(O)CCn1cc2cc(NC(=O)c3cccc([N+](=O)[O-])c3)c(N3CCOCC3)cc2n1` [Example 3, N-(2-(3-hydroxy-3-methylbutyl)-6-morpholino-2H-indazol-5-yl)-3-nitrobenzamide], for which, on IRAK4 enzyme, the IC50 turned out to be 0.2 nM, at 0.1 µM the inhibition was 81.7% and the inhibition at 1 µM was 94.4%. The compound further registered an IC50 against IRAK1 enzyme of 2600 nM. For the same compound, the IC50 in the assay with hPBMC TNFα stood at 51.8 nM.

At IRAK4 enzyme, `CS(=O)(=O)CCn1cc2cc(NC(=O)c3cccc([N+](=O)[O-])c3)c(N3CCOCC3)cc2n1` [Example 13, N-(2-(2-(methylsulfonyl)ethyl)-6-morpholino-2H-indazol-5-yl)-3-nitrobenzamide] displayed an inhibition at 0.1 µM of 18.6% and an inhibition at 1 µM of 19.2%. At IRAK1 enzyme, this compound came in with an inhibition at 0.1 µM of 1.3% and an inhibition at 1 µM of 0%.

Consider `CS(=O)(=O)CCn1ncc2cc(NC(=O)c3cccc([N+](=O)[O-])c3)c(N3CCOCC3)cc21` [Example 52, N-(1-(2-(methylsulfonyl)ethyl)-6-morpholino-1H-indazol-5-yl)-3-nitrobenzamide], for which the results for the inhibition at 0.1 µM at IRAK4 enzyme and against IRAK1 enzyme were 21.2% and 0%, respectively.

On to `CC(C)(O)CCn1cc2cc(NC(=O)c3cccc([N+](=O)[O-])c3)c(-c3cccc(C(=O)N4CCOCC4)c3)cc2n1` [Example 35, N-(2-(3-hydroxy-3-methylbutyl)-6-(3-(morpholine-4-carbonyl)phenyl)-2H-indazol-5-yl)-3-nitrobenzamide], for which, on IRAK4 enzyme, the inhibition at 0.1 µM came to 64.6%. On IRAK1 enzyme, this compound returned an inhibition at 0.1 µM of 33.1% and an inhibition at 1 µM of 60.8%.

Turning to `CN(C)c1cc2nn(CCC(C)(C)O)cc2cc1NC(=O)c1cccc([N+](=O)[O-])c1` [Example 38, N-(6-(dimethylamino)-2-(3-hydroxy-3-methylbutyl)-2H-indazol-5-yl)-3-nitrobenzamide], the IC50 on IRAK4 enzyme turned out to be 5.1 nM. For the same compound, the inhibition at 0.1 µM against IRAK4 enzyme came out at 87.9%; against IRAK1 enzyme, 4.6%.

In the case of `NC(=O)COCCn1cc2cc(NC(=O)c3cccc(C(N)=O)c3)c(N3CCOCC3)cc2n1` [Example 18, N-(2-(2-(2-amino-2-oxoethoxy)ethyl)-6-morpholino-2H-indazol-5-yl)isophthalamide], on IRAK4 enzyme, at 0.1 µM the inhibition was 54.8%. In addition, the inhibition at 1 µM against IRAK4 enzyme turned out to be 65.6%; on IRAK1 enzyme, 23.2%.

As to `CC(C)(O)Cn1cc2cc(NC(=O)c3cccc([N+](=O)[O-])c3)c(N3CCSCC3)cc2n1` [Example 45, N-(2-(2-hydroxy-2-methylpropyl)-6-thiomorpholino-2H-indazol-5-yl)-3-nitrobenzamide], on IRAK4 enzyme, 0.1 µM produced 59.6% inhibition and 1 µM produced 75% inhibition. For the same compound, the inhibition at 1 µM against IRAK1 enzyme stood at 0%.

As to `CC(C)(O)CCn1cc2cc(NC(=O)c3cccc(S(N)(=O)=O)c3)c(N3CCC(C(C)(C)O)CC3)cc2n1` [Example 29, N-(2-(3-hydroxy-3-methylbutyl)-6-(4-(2-hydroxypropan-2-yl)piperidin-1-yl)-2H-indazol-5-yl)-3-sulfamoylbenzamide], the IC50 on IRAK4 enzyme worked out at 0.88 nM; with hPBMC TNFα it was 20.4 nM. The inhibition at 0.1 µM against IRAK4 enzyme stood at 93.3%; at IRAK1 enzyme, 54.2%.

On IRAK4 enzyme, `CC(C)(O)Cn1cc2cc(NC(=O)c3cccc([N+](=O)[O-])c3)c(-c3ccsc3)cc2n1` [Example 50, N-(2-(2-hydroxy-2-methylpropyl)-6-(thiophen-3-yl)-2H-indazol-5-yl)-3-nitrobenzamide] showed an inhibition at 0.1 µM of 55.1% and an inhibition at 1 µM of 68.8%. At IRAK1 enzyme, this compound displayed an inhibition at 1 µM of 9.6%.
